Results from patent publication US20090088462A1, “Pharmaceutical Composition for Enhancing Adiponectin Production” (Daiichi Sankyo Company, Limited, priority 2005, published 2009).
Counter-ions that a name gives are not always drawn.

Test system: adiponectin
Experiment: Comparative test for adiponectin production enhancing effect: plasma adiponectin concentration by radioimmunoassay
Assay type: in vivo
Settings: female db/db mice, one week oral; Compound A 0.3 mg/kg vs B 3 mg/kg (P<0.001) and vs C 30 mg/kg (P<0.01), Tukey's multiple comparison test
Procedure: Plasma glucose levels and plasma adiponectin concentrations were compared between each of the groups respectively. The plasma adiponectin concentration was measured using a radioimmunoassay kit (Mouse Adiponectin RIA Kit, Linco Research, Inc.). Plasma was diluted by 100 times using a buffer provided with the kit, and measurement was conducted using the diluted plasma (5 μL) (final dilution rate: 2000 times). The radioactivity was measured using a gamma counter, and adiponectin concentration was calculated from the measured radioactivity (measurement unit: μg/mL).

COc1ccc2nc(COc3ccc(CC4SC(=O)NC4=O)cc3)n(C)c2c1 (stereo not shown) [Compound A, 5-[4-(6-Methoxy-1-methyl-1H-benzimidazol-2-ylmethoxy)benzyl]thiazolidine-2,4-dione hydrochloride]
plasma adiponectin concentration compared with Compound B and Compound C administration groups: significant increasing effect
